Results as given in paper PMC3601769 (Bioorganic & medicinal chemistry letters, 2013).

These compounds were tested on tubulin (colchicine site) (assay: Inhibition of colchicine binding to tubulin).

Inhibition of colchicine binding (% inhibition ± SD) at 5 μM inhibitor	Structure (SMILES)
inactive	Fc1ccccc1Nc1nc(-c2ccccc2)no1 [DCP 10500060]
inactive	CCOC(=O)c1cccc(Nc2nc(-c3ccc(OC)cc3)no2)c1 [DCP 10500035]
inactive	COc1ccc(OC)c(Nc2nc(-c3cccc(OC)c3OC)no2)c1 [DCP 10500070]
